Tested on: 699152-130-R-J1-PDC complex spheroid viability
Experiment: Anticancer human tumor 699152-130-R-J1-PDC patient-derived pancreatic carcinoma cell line growth inhibition [POLQ]
Details: for IC50: curve of first compound; for viability, T/C: stronger effect = lower value; active = viability on the fitted dose curve at most 10% of control; inactive = the rest
Method in brief: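 PDC + HUVEC + MSC complex spheroids; POLQ inhibitors ± partner drugs; top conc. at/near clinical Cmax, else 10 microM (SN-38 1 microM), half-log dilutions; 37 degrees C, 5% CO2.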

[1] = second compound 0.0316 µM, first compound 0.0316 µM
[2] = second compound 0.0316 µM, first compound 0.1 µM
[3] = second compound 0.1 µM, first compound 0.0316 µM
[4] = second compound 0.1 µM, first compound 0.1 µM
[5] = second compound 0.316 µM, first compound 0.0316 µM
[6] = second compound 0.316 µM, first compound 0.1 µM
[7] = second compound 1 µM, first compound 0.0316 µM
[8] = second compound 1 µM, first compound 0.1 µM
[9] = second compound 3.16 µM, first compound 0.0316 µM
[10] = second compound 3.16 µM, first compound 0.1 µM
[11] = second compound 10 µM, first compound 0.0316 µM
[12] = second compound 10 µM, first compound 0.1 µM
[13] = second compound 0.0316 µM, first compound 0.316 µM
[14] = second compound 0.0316 µM, first compound 1 µM
[15] = second compound 0.0316 µM, first compound 3.16 µM
[16] = second compound 0.0316 µM, first compound 10 µM
[17] = second compound 0.1 µM, first compound 0.316 µM
[18] = second compound 0.1 µM, first compound 1 µM
[19] = second compound 0.1 µM, first compound 3.16 µM
[20] = second compound 0.1 µM, first compound 10 µM
[21] = second compound 0.316 µM, first compound 0.316 µM
[22] = second compound 0.316 µM, first compound 1 µM
[23] = second compound 0.316 µM, first compound 3.16 µM
[24] = second compound 0.316 µM, first compound 10 µM
[25] = second compound 1 µM, first compound 0.316 µM
[26] = second compound 1 µM, first compound 1 µM
[27] = second compound 1 µM, first compound 3.16 µM
[28] = second compound 1 µM, first compound 10 µM
[29] = second compound 3.16 µM, first compound 0.316 µM
[30] = second compound 3.16 µM, first compound 1 µM
[31] = second compound 3.16 µM, first compound 3.16 µM
[32] = second compound 3.16 µM, first compound 10 µM
[33] = second compound 10 µM, first compound 0.316 µM
[34] = second compound 10 µM, first compound 1 µM
[35] = second compound 10 µM, first compound 3.16 µM
[36] = second compound 10 µM, first compound 10 µM
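Also: spheroids exposed to agents for 7 days before viability reading.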
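For viability, T/C in this document: percent of DMSO vehicle control viability so 100% = vehicle and 0% = no viable signal.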

CC[C@@]1(O)C(=O)OCc2c1cc1n(c2=O)Cc2cc3c(CN(C)C)c(O)ccc3nc2-1 + Nc1ccc(C#CCN(C(=O)Cc2ncc(C(F)(F)F)cc2C(F)(F)F)c2ccc(F)cc2)nn1
inactive: viability, T/C (second compound 0.0316 µM, first compound 0.000316 µM) 109% | viability, T/C (second compound 0.0316 µM, first compound 0.001 µM) 106% | viability, T/C (second compound 0.0316 µM, first compound 0.00316 µM) 97.9% | viability, T/C (second compound 0.0316 µM, first compound 0.01 µM) 91.8% | viability, T/C [1] 80.6% | viability, T/C [2] 65.9% | viability, T/C (second compound 0.1 µM, first compound 0.000316 µM) 100% | viability, T/C (second compound 0.1 µM, first compound 0.001 µM) 108% | viability, T/C (second compound 0.1 µM, first compound 0.00316 µM) 95.3% | viability, T/C (second compound 0.1 µM, first compound 0.01 µM) 92.1% | viability, T/C [3] 84.4% | viability, T/C [4] 57.7% | viability, T/C (second compound 0.316 µM, first compound 0.000316 µM) 99.7% | viability, T/C (second compound 0.316 µM, first compound 0.001 µM) 105% | viability, T/C (second compound 0.316 µM, first compound 0.00316 µM) 102% | viability, T/C (second compound 0.316 µM, first compound 0.01 µM) 90% | viability, T/C [5] 80.1% | viability, T/C [6] 73.2% | viability, T/C (second compound 1 µM, first compound 0.000316 µM) 113% | viability, T/C (second compound 1 µM, first compound 0.001 µM) 97.8% | viability, T/C (second compound 1 µM, first compound 0.00316 µM) 109% | viability, T/C (second compound 1 µM, first compound 0.01 µM) 97% | viability, T/C [7] 82.6% | viability, T/C [8] 69.9% | viability, T/C (second compound 3.16 µM, first compound 0.000316 µM) 102% | viability, T/C (second compound 3.16 µM, first compound 0.001 µM) 105% | viability, T/C (second compound 3.16 µM, first compound 0.00316 µM) 95.8% | viability, T/C (second compound 3.16 µM, first compound 0.01 µM) 108% | viability, T/C [9] 85.2% | viability, T/C [10] 62.2% | viability, T/C (second compound 10 µM, first compound 0.000316 µM) 109% | viability, T/C (second compound 10 µM, first compound 0.001 µM) 119% | viability, T/C (second compound 10 µM, first compound 0.00316 µM) 123% | viability, T/C (second compound 10 µM, first compound 0.01 µM) 114% | viability, T/C [11] 108% | viability, T/C [12] 68%
> 100 nM: IC50 (second compound 0.0316 µM) | IC50 (second compound 0.1 µM) | IC50 (second compound 0.316 µM) | IC50 (second compound 1 µM) | IC50 (second compound 3.16 µM) | IC50 (second compound 10 µM)

CC1COCCN1c1cc(C2(S(C)(=N)=O)CC2)nc(-c2ccnc3[nH]ccc23)n1 (stereo unspecified) + Cc1cccc(N(C)C(=O)C2C(O)CCN2c2nc(C)cc(C(F)(F)F)c2C#N)c1
> 10000 nM: IC50 (second compound 0.0316 µM) | IC50 (second compound 0.1 µM) | IC50 (second compound 0.316 µM) | IC50 (second compound 1 µM) | IC50 (second compound 3.16 µM) | IC50 (second compound 10 µM)
inactive: viability, T/C [1] 102% | viability, T/C [2] 95.6% | viability, T/C [13] 90.2% | viability, T/C [14] 99.9% | viability, T/C [15] 81.4% | viability, T/C [16] 64% | viability, T/C [3] 99.8% | viability, T/C [4] 110% | viability, T/C [17] 89.5% | viability, T/C [18] 92.8% | viability, T/C [19] 75.2% | viability, T/C [20] 73.7% | viability, T/C [5] 110% | viability, T/C [6] 91.7% | viability, T/C [21] 102% | viability, T/C [22] 83.5% | viability, T/C [23] 76.5% | viability, T/C [24] 68.8% | viability, T/C [7] 107% | viability, T/C [8] 97.8% | viability, T/C [25] 97.5% | viability, T/C [26] 81.7% | viability, T/C [27] 80.2% | viability, T/C [28] 67.8% | viability, T/C [9] 102% | viability, T/C [10] 97.9% | viability, T/C [29] 99% | viability, T/C [30] 96.3% | viability, T/C [31] 77.5% | viability, T/C [32] 70.8% | viability, T/C [11] 104% | viability, T/C [12] 110% | viability, T/C [33] 103% | viability, T/C [34] 85.8% | viability, T/C [35] 95.1% | viability, T/C [36] 69.8%

C#Cc1c(F)ccc2cc(O)cc(-c3ncc4c(N5CC6CCC(C5)N6)nc(OCC56CCCN5CC(F)C6)nc4c3F)c12 (stereo unspecified) + Cc1cccc(N(C)C(=O)C2C(O)CCN2c2nc(C)cc(C(F)(F)F)c2C#N)c1
< 31.6 nM: IC50 (second compound 0.0316 µM) | IC50 (second compound 0.1 µM) | IC50 (second compound 0.316 µM) | IC50 (second compound 1 µM) | IC50 (second compound 3.16 µM) | IC50 (second compound 10 µM)
inactive: viability, T/C [1] 27.9% | viability, T/C [2] 17.8% | viability, T/C [13] 22.6% | viability, T/C [14] 13.8% | viability, T/C [15] 12.4% | viability, T/C [16] 12.1% | viability, T/C [3] 25.5% | viability, T/C [4] 16.7% | viability, T/C [17] 15.5% | viability, T/C [18] 13.2% | viability, T/C [19] 13.8% | viability, T/C [20] 13.1% | viability, T/C [5] 26.9% | viability, T/C [6] 18.4% | viability, T/C [21] 14.5% | viability, T/C [22] 13.8% | viability, T/C [23] 14.6% | viability, T/C [24] 12.4% | viability, T/C [7] 21.9% | viability, T/C [8] 20.6% | viability, T/C [25] 15.3% | viability, T/C [26] 13.2% | viability, T/C [27] 15.1% | viability, T/C [28] 13.8% | viability, T/C [9] 22.9% | viability, T/C [10] 17.1% | viability, T/C [29] 17.4% | viability, T/C [30] 16.5% | viability, T/C [31] 15.2% | viability, T/C [32] 12.8% | viability, T/C [11] 21.5% | viability, T/C [12] 18.4% | viability, T/C [33] 17.1% | viability, T/C [34] 14.3% | viability, T/C [35] 13.4% | viability, T/C [36] 15.3%
